Experimental data taken from ChEMBL document CHEMBL1135524, “2-Ethyl and 2-ethylidene analogues of 1alpha,25-dihydroxy-19-norvitamin D(3): synthesis, conformational analysis, biological activities, and docking to the modeled rVDR ligand binding domain” (2002).
Several values for one entry are separate records, joined by “and”; a condition that tells them apart may be missing. Identical values can stand only once.

Experiments:
Rattus norvegicus [1] = species: Rattus norvegicus; experiment: Intestinal calcium transport at dose 260 (pmol); type: functional
Rattus norvegicus [2] = species: Rattus norvegicus; experiment: (§1) Bone calcium mobilization in rats maintained on a very low calcium diet at a dose 130 (pmol); type: functional, organism-based
Rattus norvegicus [3] = species: Rattus norvegicus; experiment: Intestinal calcium transport at dose 130 (pmol); type: functional
Rattus norvegicus [4] = species: Rattus norvegicus; experiment: Bone calcium mobilization in rats maintained on a very low calcium diet at a dose 260 (pmol); type: functional, organism-based
Rattus norvegicus [5] = species: Rattus norvegicus; experiment: as §1; type: functional, organism-based; remark: listed apart in the source
HL-60 [6] = experiment: Ability to induce differentiation of human promyelocyte HL-60 cells into monocytes.; type: functional; conditions: read-out: ED50 (the source's name)
HL-60 [7] = experiment: Ratio of average ED50 to 1-alpha,25-(OH)2D3 ED50 for differentiation assay; type: functional, Homo sapiens
[8] = biological target: T1, Vitamin D3 receptor (Sus scrofa) (UniProt A3RGC1); experiment: Binding affinity for porcine intestinal Vitamin D3 receptor (VDR)
T1 sequence (whole entry): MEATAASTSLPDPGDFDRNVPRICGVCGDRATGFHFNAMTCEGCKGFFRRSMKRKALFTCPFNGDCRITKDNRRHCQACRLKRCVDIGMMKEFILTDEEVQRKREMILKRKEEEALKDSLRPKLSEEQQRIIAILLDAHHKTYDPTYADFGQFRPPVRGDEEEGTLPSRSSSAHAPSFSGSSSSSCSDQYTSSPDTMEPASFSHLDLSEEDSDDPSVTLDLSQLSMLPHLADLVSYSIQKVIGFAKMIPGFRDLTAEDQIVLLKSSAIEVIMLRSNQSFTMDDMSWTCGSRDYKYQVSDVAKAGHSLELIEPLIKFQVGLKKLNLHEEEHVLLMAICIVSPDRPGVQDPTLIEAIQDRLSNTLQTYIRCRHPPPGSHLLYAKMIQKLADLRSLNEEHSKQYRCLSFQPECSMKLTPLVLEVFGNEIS

Compound | Ca2+ transport (Rattus norvegicus [1]) | Ca2+ transport (Rattus norvegicus [3]) | Serum Ca2+ (Rattus norvegicus [4]) | EC50 (HL-60 [6]) [nM] | Activity ratio (HL-60 [7]) | further results
C=C1/C(=C\C=C2/CCC[C@]3(C)[C@@H]([C@H](C)CCCC(C)(C)O)CC[C@@H]23)C[C@@H](O)C[C@@H]1O [CALCITRIOL] | 6.5 and 5.9 and 6 | 5.5 and 4.9 and 5.2 | 5.8 (2×) and 6.4 (2×) |  |  | Serum Ca2+ (Rattus norvegicus [2]): 5.1; Serum Ca2+ (Rattus norvegicus [5]): 5.2 and 5.7
CCC1[C@H](O)CC(=C/C=C2\CCC[C@]3(C)[C@@H]([C@H](C)CCCC(C)(C)O)CC[C@@H]23)C[C@H]1O (some centres undefined) [listing 1 of 3 here] | 3.7 |  |  | 12 | 4.4 | 
CC=C1[C@H](O)CC(=C/C=C2\CCC[C@]3(C)[C@@H]([C@@H](C)CCCC(C)(C)O)CC[C@@H]23)C[C@H]1O [listing 1 of 3 here] | 6.6 | 6.7 |  | 0.15 | 0.06 | 
CCC1[C@H](O)CC(=C/C=C2\CCC[C@]3(C)[C@@H]([C@H](C)CCCC(C)(C)O)CC[C@@H]23)C[C@H]1O (some centres undefined) [listing 2 of 3 here] |  |  | 5 and 5.1 |  |  | 
CC=C1[C@H](O)CC(=C/C=C2\CCC[C@]3(C)[C@@H]([C@H](C)CCCC(C)(C)O)CC[C@@H]23)C[C@H]1O [listing 1 of 3 here] | 5 | 6.8 |  |  | 0.8 | EC50 (HL-60 [6]; Homo sapiens, HL-60): 2 nM
CCC1[C@H](O)CC(=C/C=C2\CCC[C@]3(C)[C@@H]([C@H](C)CCCC(C)(C)O)CC[C@@H]23)C[C@H]1O (some centres undefined) [listing 3 of 3 here] | 4 |  |  | 0.46 | 0.17 | 
CCC1[C@H](O)CC(=C/C=C2\CCC[C@]3(C)[C@@H]([C@@H](C)CCCC(C)(C)O)CC[C@@H]23)C[C@H]1O (some centres undefined) [listing 1 of 3 here] |  |  |  | 0.13 | 0.05 | 
CCC1[C@H](O)CC(=C/C=C2\CCC[C@]3(C)[C@@H]([C@@H](C)CCCC(C)(C)O)CC[C@@H]23)C[C@H]1O (some centres undefined) [listing 2 of 3 here] |  |  | 5.6 |  |  | 
CC=C1[C@H](O)CC(=C/C=C2\CCC[C@]3(C)[C@@H]([C@@H](C)CCCC(C)(C)O)CC[C@@H]23)C[C@H]1O [listing 2 of 3 here] | 9 | 5.8 |  |  | 0.09 | EC50 (HL-60 [6]; Homo sapiens, HL-60): 0.22 nM
CC=C1[C@H](O)CC(=C/C=C2\CCC[C@]3(C)[C@@H]([C@@H](C)CCCC(C)(C)O)CC[C@@H]23)C[C@H]1O [listing 3 of 3 here] |  |  | 8.2 and 4.4 |  |  | ED50 [8]: 0.28 nM and 0.5 nM; Serum Ca2+ (Rattus norvegicus [2]): 12.1 and 5.1
CC=C1[C@H](O)CC(=C/C=C2\CCC[C@]3(C)[C@@H]([C@H](C)CCCC(C)(C)O)CC[C@@H]23)C[C@H]1O [listing 2 of 3 here] | 4.4 | 5.7 |  | 4 | 1.6 | 
CCC1[C@H](O)CC(=C/C=C2\CCC[C@]3(C)[C@@H]([C@@H](C)CCCC(C)(C)O)CC[C@@H]23)C[C@H]1O (some centres undefined) [listing 3 of 3 here] | 4.1 |  |  | 6.3 | 2.3 | 
CC=C1[C@H](O)CC(=C/C=C2\CCC[C@]3(C)[C@@H]([C@H](C)CCCC(C)(C)O)CC[C@@H]23)C[C@H]1O [listing 3 of 3 here] |  |  | 4.5 and 4.4 |  |  | Serum Ca2+ (Rattus norvegicus [2]): 5.2 and 4.2
